{"source": "patent US20250281569A1", "about": "“COMPOSITIONS AND METHODS FOR TREATING NEUROENDOCRINE TUMORS” (CAMURUS AB, priority 2021, published 2025)", "experiment": "Non-clinical bridging studies of toxicity, PK and local tolerability", "conditions": "in vivo", "excerpt": "In addition, the FluidCrystal® vehicle and the excipient glycerol dioleate have been evaluated."}
{"smiles": "CCCCCCCC/C=C\\CCCCCCCC(=O)OCC(CO)OC(=O)CCCCCCC/C=C\\CCCCCCCC", "note": "(stereo not shown) [glycerol dioleate]", "values": [{"measurement": "main effects observed in non-clinical studies", "value": "reversible injection-site reactions"}]}
